Assay results as given in patent publication US7015313B2, “Lectin protein prepared from Korean marine crab Philyra pisum, process for preparing the same and the use thereof” (priority 2001, dated 2006).

Assays:
lectin PPA = test: Hemagglutination-inhibition assay of the lectin PPA with monosaccharide, disaccharide and glycoprotein; type: binding, Philyra pisum; conditions: for Erythrocyte agglutination inhibition concentration: 6.25% mouse erythrocyte, lectin PPA diluted 128-fold; for inhibition of agglutination (in words): summary of Table 2
Experimental: In order to confirm that the lectin PPA of the present invention recognizes N-glycolylneuraminic acid, hemagglutination-inhibition reaction was performed using monosaccharide, disaccharide and glycoprotein. 50 Microliters of a 128-fold diluted solution of lectin PPA in 0.15 molar NaCl and 50 microliters of each of 1 milligram per milliliter solutions of monosaccharides (e.g., β-D-glucose, D-galactose, L-fucose, D-mannose, N-acetylneuraminic acid, N-glycolylneuraminic acid, N-acetyl-D-glucosamine, N-acetyl-D-galactosamine and methyl-α-D-glucopoyranoside), disaccharide (e.g., α-lactose, β-lactose, D-lactose, βgentiobiose, maltose, D-raffinose or D-cellobiose) and glycoprotein (e.g., bovine submaxillary mucin, thyroglobulin, fetuin and asialofetuin) in 0. 15 molar NaCl were added to the each well of a 96-well microplate. After the reaction for one hour or more at room temperature, 50 microliters of the erythrocyte suspended in 0.15 molar NaCl was added to each well and reacted for one hour at room temperature.
The negative sign (−) means that there is no hemagglutination-inhibition for 100 millimolar monosaccharide/disaccharide and 100 micromolar glucoprotein. NeuGc and NeuAc represent N-glycolylneuraminic acid and N-acetylneuraminic acid, respectively.

[1] = system: peroxidase-labeled lectin PPA; test: ELISA with peroxidase-labeled lectin PPA on coated glycoproteins; type: binding, Philyra pisum; conditions: 1 milligram per milliliter glycoprotein solution diluted 10^3 to 10^8-fold, FIG. 3
Experimental: In order to more accurately verify the hemagglutination-inhibition reaction of the lectin PPA, ELISA was conducted. Specifically, the lectin PPA bound to a horse radish peroxidase (HRP) was used in examining the reactivity and sensitivity against glucoproteins by ELISA. First, 5.03 milligrams of HRP were dissolved in 0.2 milliliter of a 1.25% glutaraldehyde (EM grade)-100 millimolar sodium phosphate buffer (pH 6.8) and allowed to stand for 18 hours at room temperature. Then, 20 microliters of glycerol and 20 microliters of xylene cyanol were added thereto and this was used in performing gel filtration with a SEPHADEX (TM) G-75 column equilibrated with a 100 millimolar phosphate buffer and 0.15 molar NaCl (pH 7.2). After applying the glutaraldehyde-treated HRP onto the column and eluting with 0.15 molar NaCl, about 1 milliliter of the brownish fraction containing HRP solution was collected. This fraction was dialyzed with a 100 millimolar sodium carbonate-sodium bicarbonate buffer solution (pH 9.5) containing sucrose and followed by the same buffer without sucrose. To 300 microliters of HRP thus obtained were added 150 microliters of lectin PPA (concentration of about 0.4 milligram per milliliter concentration) containing with 0.15 molar NaCl. After confirming the pH value 9.0 or more, the resultant solution was incubated for 24 hours at 4° C. to prepare peroxidase-labeled lectin PPA. In the mean time, 1 milligram of each of fetuin, asialofetuin and bovine submaxillary mucin was dissolved in 1 milliliter of PBS and serial 10-fold dilutions were made. […] Then, the absorbance at 415 nanometers of each well was measured with a microplate reader. To eliminate the error of each well caused by the time difference while adding ABTS, a second measurement was performed after 10 minutes to determine the difference in the absorbances between the time of 10 minutes and 0 minute. […] The absorbance was decreased with the lowering of the concentration.

[2] = monosaccharide/disaccharide tested from 100 mM
[3] = glycoprotein tested from 100 micromolar
[4] = glycoprotein, minimum concentration

Compound | Erythrocyte agglutination inhibition concentration (lectin PPA; [2]) | also measured
OC[C@H]1O[C@@H](O[C@H]2[C@H](O)[C@@H](O)[C@H](O)O[C@@H]2CO)[C@H](O)[C@@H](O)[C@@H]1O [D-cellobiose] | — (The negative sign (−) means that there is no hemagglutination-inhibition for 100 millimolar monosaccharide/disaccharide) | –
O=C[C@H](O)[C@@H](O)[C@@H](O)[C@H](O)CO [D-galactose] | — (The negative sign (−) means that there is no hemagglutination-inhibition for 100 millimolar monosaccharide/disaccharide) | –
OC[C@H]1O[C@@H](O[C@H]2[C@H](O)[C@@H](O)C(O)O[C@@H]2CO)[C@H](O)[C@@H](O)[C@H]1O (stereo partly drawn) [D-lactose] | — (The negative sign (−) means that there is no hemagglutination-inhibition for 100 millimolar monosaccharide/disaccharide) | –
O=C[C@@H](O)[C@@H](O)[C@H](O)[C@H](O)CO [D-mannose] | — (The negative sign (−) means that there is no hemagglutination-inhibition for 100 millimolar monosaccharide/disaccharide) | –
OC[C@H]1O[C@H](OC[C@H]2O[C@H](O[C@]3(CO)O[C@H](CO)[C@@H](O)[C@@H]3O)[C@H](O)[C@@H](O)[C@@H]2O)[C@H](O)[C@@H](O)[C@H]1O [D-raffinose] | — (The negative sign (−) means that there is no hemagglutination-inhibition for 100 millimolar monosaccharide/disaccharide) | –
C[C@H](O)[C@@H](O)[C@@H](O)[C@H](O)C=O [L-fucose] | — (The negative sign (−) means that there is no hemagglutination-inhibition for 100 millimolar monosaccharide/disaccharide) | –
OC[C@H]1O[C@H](O[C@H]2[C@H](O)[C@@H](O)[C@H](O)O[C@@H]2CO)[C@H](O)[C@@H](O)[C@@H]1O [Maltose] | — (The negative sign (−) means that there is no hemagglutination-inhibition for 100 millimolar monosaccharide/disaccharide) | –
CO[C@H]1O[C@H](CO)[C@@H](O)[C@H](O)[C@H]1O [Methyl-α-D-glucopyranoside] | — (The negative sign (−) means that there is no hemagglutination-inhibition for 100 millimolar monosaccharide/disaccharide) | –
CC(=O)N[C@H]1C(O)O[C@H](CO)[C@H](O)[C@@H]1O (stereo partly drawn) [N-acetyl-D-galactosamine] | — (The negative sign (−) means that there is no hemagglutination-inhibition for 100 millimolar monosaccharide/disaccharide) | –
CC(=O)N[C@H]1C(O)O[C@H](CO)[C@@H](O)[C@@H]1O (stereo partly drawn) [N-acetyl-D-glucosamine] | — (The negative sign (−) means that there is no hemagglutination-inhibition for 100 millimolar monosaccharide/disaccharide) | –
CC(=O)N[C@H]1[C@H]([C@H](O)[C@H](O)CO)OC(O)(C(=O)O)C[C@@H]1O (some centres unmarked) [N-acetylneuraminic acid] | — (The negative sign (−) means that there is no hemagglutination-inhibition for 100 millimolar monosaccharide/disaccharide) | –
O=C(CO)N[C@H]1[C@H]([C@H](O)[C@H](O)CO)OC(O)(C(=O)O)C[C@@H]1O (some centres unmarked) [N-glycolylneuraminic acid] | – | Erythrocyte agglutination inhibition concentration (lectin PPA; monosaccharide/disaccharide, minimum concentration): 190 µM; inhibition of agglutination (in words) (lectin PPA): inhibited the agglutination
OC[C@H]1O[C@@H](O)[C@H](O)[C@@H](O)[C@@H]1O [beta.-D-glucose] | — (The negative sign (−) means that there is no hemagglutination-inhibition for 100 millimolar monosaccharide/disaccharide) | –
OC[C@H]1O[C@@H](O[C@H]2[C@H](O)[C@@H](O)[C@@H](O)O[C@@H]2CO)[C@H](O)[C@@H](O)[C@H]1O [α-lactose] | — (The negative sign (−) means that there is no hemagglutination-inhibition for 100 millimolar monosaccharide/disaccharide) | –
OC[C@H]1O[C@@H](OC[C@H]2O[C@@H](O)[C@H](O)[C@@H](O)[C@@H]2O)[C@H](O)[C@@H](O)[C@@H]1O [β-gentiobiose] | — (The negative sign (−) means that there is no hemagglutination-inhibition for 100 millimolar monosaccharide/disaccharide) | –
OC[C@H]1O[C@@H](O[C@H]2[C@H](O)[C@@H](O)[C@H](O)O[C@@H]2CO)[C@H](O)[C@@H](O)[C@H]1O [β-lactose] | — (The negative sign (−) means that there is no hemagglutination-inhibition for 100 millimolar monosaccharide/disaccharide) | –
Asialofetuin: glycoprotein without sialic acid, does not contain N-glycolylneuraminic acid | – | ELISA response (absorbance at 415 nanometers) [1]: no response occurred; Erythrocyte agglutination inhibition concentration (lectin PPA; [3]): — (The negative sign (−) means that there is no hemagglutination-inhibition for 100 millimolar monosaccharide/disaccharide and 100 micromolar glucoprotein)
Bovine submaxillary mucin | – | ELISA response (absorbance at 415 nanometers) [1]: a response in which absorbance value is increased was observed; Erythrocyte agglutination inhibition concentration (lectin PPA; [4]): 1.3 µM; inhibition of agglutination (in words) (lectin PPA): inhibited the agglutination
Fetuin: glycoprotein with NeuAc, does not contain N-glycolylneuraminic acid | – | ELISA response (absorbance at 415 nanometers) [1]: no response occurred; Erythrocyte agglutination inhibition concentration (lectin PPA; [3]): — (The negative sign (−) means that there is no hemagglutination-inhibition for 100 millimolar monosaccharide/disaccharide and 100 micromolar glucoprotein)
Thyroglobulin: glycoprotein containing N-glycolylneuraminic acid | – | Erythrocyte agglutination inhibition concentration (lectin PPA; [4]): 0.4 µM; inhibition of agglutination (in words) (lectin PPA): inhibited the agglutination
